Laboratory results reported in patent US20260042764A1, “COMPOSITIONS AND METHODS FOR INHIBITION OF KRAS” (TheRas, Inc., priority 2022, published 2026).
Read-outs that look alike come from different tables or passages of the source.

Legend:
[1] = system: KP-2 cells (KRAS G12R); experiment: 3D Cell viability assay in KP-2 cells (Biological Example 6); assay type: cell-based; conditions: KP-2 (KRAS G12R) spheroids, 72 hours
Protocol: (§1) Biological Example 6: 3D Cell viability assay in AsPC-1, SW1900, HPAC, Capan-2, RKN, H358, HCT116, KP-2, H1573, A549, MKN1, and HT1080 cells
(§2) The inhibition of cellular viability as a result of test compound treatment in a spheroid assay was measured using the CellTiter-Glow 3D Cell Viability Assay (Promega).
(§3) On Day 1, 1000 cells per well were seeded in 150 μL of complete growth media supplemented with 10% fetal bovine serum (FBS) and incubated at 37° C., in the presence of 5% CO2 in 96-well ultra-low attachment microplates (Corning) for 48 hours undisturbed to allow spheroids to form.
(§4) Following spheroid formation, cells were treated with compounds diluted in DMSO at 0.25% final DMSO concentration. Compounds were dosed in a 9-point concentration curve with three-fold dilution between concentrations. Cells were incubated in the presence of compound for 72 hours at 37° C., in the presence of 5% CO2.
(§5) Following this incubation period, the kit-provided CTG reagent was allowed to equilibrate for 30 minutes at room temperature, 150 μL of equilibrated CTG reagent was added to each well, and the plate was sealed before shaking at 250 rpm for 10 minutes at room temperature to lyse the cells, 150 μL of lysate per well was transferred to a 96-well plate and luminescence was read on a CLARIOstar plate reader.
(§6) Data was imported into the Prism software package (Graphpad) and EC50 values were calculated using the log (inhibitor) vs, response—variable slope (Four parameters) model.

[2] = system: KP-2 cells (KRAS G12R); experiment: Cell-based pERK HTRF assay in KP-2 cells (Biological Example 5); conditions: KP-2 (KRAS G12R) cells
Protocol: (§7) Biological Example 5: Cell-based PERK HTRF assay in AsPC-1, SW1900, HPAC, Capan-2, RKN, H358, HCT116, KP-2, H1573, A549, MKN1, and HT1080 cells
(§8) The inhibition of ERK phosphorylation, as measured using the HTRF Advanced Phospho-ERK 1/2 (Thr202/Tyr204) Detection Assay kit (Perkin Elmer), was used to determine the effectiveness of test compounds in disrupting KRAS-driven protein/effector signaling in cells.
(§9) On day 1, cells were seeded into 96-well plates at 2.5×10^4 cells/well in 100 μL of complete growth media supplemented with 10% fetal bovine serum (FBS) and incubated at 37° C., in the presence of 5% CO2.
(§10) On day 2, cells were treated with compounds diluted in DMSO at 0.25% final DMSO concentration. Compounds were dosed in a 9-point concentration curve with three-fold dilution between concentrations. Cells were incubated in the presence of compound for two hours at 37° C. Following this treatment period, cells were harvested by aspirating the media, adding 40 μL of kit-supplied 1x lysis buffer per well, and shaking for 30 minutes at 250 rpm at room temperature.
(§11) Following cell lysis, samples were homogenized by pipetting up and down twenty times and 16 μL of cell lysate per well was transferred from the 96-well cell culture plate to two wells of a 384-well detection plate. A complete detection buffer was prepared by diluting D2 and Eu Cryptate antibodies 1:20 in kit-provided detection solution, 4 μL of complete detection buffer was then added to each well with lysate. Plates were incubated with gentle rocking for 24 hours at 4° C.
(§12) Following this incubation period, plates were centrifuged at 500×g for one minute and analyzed on a CLARIOstar plate reader. Data was imported into Microsoft Excel and the signal from the 665 nm channel was divided by the signal from the 620 nm channel. % pERK was calculated as: […]
(§13) Data was imported to the Prism software package (Graphpad) and EC50 values were calculated using the log (inhibitor) vs, response—variable slopc (Four parameters) model.

[3] = system: HT1080 cells (NRAS); experiment: 3D Cell viability assay in HT1080 cells (Biological Example 6); assay type: cell-based; conditions: HT1080 (NRAS) spheroids, 72 hours
Protocol: as §1, §2, §3, §4, §5, §6

[4] = system: H1573 cells (KRAS G12A); experiment: Cell-based pERK HTRF assay in H1573 cells (Biological Example 5)
Protocol: as §7, §8, §9, §10, §11, §12, §13

Compound	IC50 [1] [µM]	IC50 [2] [µM]	IC50 ([3]; Homo sapiens, HT-1080) [µM]	IC50 ([4]; Homo sapiens, NCI-H1573) [µM]	IC50 [3] [µM]	IC50 [4] [µM]
N#Cc1cnn2c1CN(c1nc(OC[C@@]34CCCN3C[C@H](F)C4)nc3c(F)c(-c4ccc(F)c5sc(N)c(C#N)c45)c(C(F)(F)F)cc13)CC2 [Compound 392]	0.1 to 1	0.1 to 1	> 1	0.1 to 1		
CCC(=O)N1C[C@@H](N(CC)c2nc(OC[C@@]34CCCN3C[C@H](F)C4)nc3c(F)c(-c4ccc(F)c5sc(N)c(C#N)c45)c(C(F)(F)F)cc23)C[C@H]1C [Compound 442]	0.1 to 1	0.1 to 1	> 1	0.1 to 1		
C[C@@H]1[C@H](N(C)c2nc(OC[C@@]34CCCN3C[C@H](F)C4)nc3c(F)c(-c4ccc(F)c5sc(N)c(C#N)c45)c(C(F)(F)F)cc23)CC(=O)N1C [Compound 440]	≤ 0.1	0.1 to 1	> 1	0.1 to 1		
N#Cc1c(N)sc2c(F)ccc(-c3c(C(F)(F)F)cc4c(N5CC6CC(C5)O6)nc(OC[C@@]56CCCN5C[C@H](F)C6)nc4c3F)c12 (single isomer, unassigned) [Compound 275]	≤ 0.1	0.1 to 1	> 1	≤ 0.1		
CCN(c1nc(OC[C@@]23CCCN2C[C@H](F)C3)nc2c(F)c(-c3ccc(F)c4sc(N)c(C#N)c34)c(C(F)(F)F)cc12)[C@H]1CCN(C(=O)C(C)C)C1 [Compound 332]	≤ 0.1	≤ 0.1	> 1	≤ 0.1		
N#Cc1c(N)sc2c(F)ccc(-c3c(C(F)(F)F)cc4c(N5CCCOCC5)nc(OC[C@@]56CCCN5C[C@H](F)C6)nc4c3F)c12 [Compound 232]			> 1	≤ 0.1		
CCN(c1nc(OC[C@@]23CCCN2C[C@H](F)C3)nc2c(F)c(-c3ccc(F)c4sc(N)c(C#N)c34)c(C(F)(F)F)cc12)[C@H]1CCN(C(C)=O)C1 [Compound 262]	0.1 to 1	≤ 0.1	> 1	≤ 0.1		
CN(c1nc(OC[C@@]23CCCN2C[C@H](F)C3)nc2c(F)c(-c3ccc(F)c4sc(N)c(C#N)c34)c(C(F)(F)F)cc12)[C@H]1C[C@@H](O)C1 [Compound 19, 2-amino-7-fluoro-4-((S)-8-fluoro-2-(((2R,7aS)-2-fluorotetrahydro-1H-pyrrolizin-7a(5H)-yl)methoxy)-4-(((1s,3R)-3-hydroxycyclobutyl)(methyl)amino)-6-(trifluoromethyl)quinazolin-7-yl)benzo[b]thiophene-3-carbonitrile]					> 1	≤ 0.1
C[C@@H]1[C@H](N(C)c2nc(OC[C@@]34CCCN3C[C@H](F)C4)nc3c(F)c(-c4ccc(F)c5sc(N)c(C#N)c45)c(C(F)(F)F)cc23)CCN1C(=O)C1CC1 [Compound 258]			> 1	≤ 0.1		
CC(=O)N1CC[C@@H](N(C)c2nc(OC[C@@]34CCCN3C[C@H](F)C4)nc3c(F)c(-c4ccc(F)c5sc(N)c(C#N)c45)c(Cl)cc23)[C@H]1C [Compound 398]			> 1	≤ 0.1		
CCN(c1nc(OC[C@@]23CCCN2C[C@H](F)C3)nc2c(F)c(-c3ccc(F)c4sc(N)c(C#N)c34)c(Cl)cc12)[C@@H]1CCN(C(C)=O)[C@@H]1C [Compound 323]			> 1	≤ 0.1		
N#Cc1c(N)sc2c(F)ccc(-c3c(C(F)(F)F)cc4c(N5CCC[C@@H](O)C5)nc(OC[C@@]56CCCN5C[C@H](F)C6)nc4c3F)c12 [Compound 234]			> 1	≤ 0.1		
CCN(c1nc(OC[C@@]23CCCN2C[C@H](F)C3)nc2c(F)c(-c3ccc(F)c4sc(N)c(C#N)c34)c(C(F)(F)F)cc12)[C@H]1C[C@H](C)N(C(C)=O)C1 [Compound 463]			> 1			
CN(Cc1cccnc1N)c1nc(OC[C@@]23CCCN2C[C@H](F)C3)nc2c(F)c(-c3ccc(F)c4sc(N)c(C#N)c34)c(C(F)(F)F)cc12 [Compound 390]			> 1			
CCC(=O)N1CC[C@@H](N(C)c2nc(OC[C@@]34CCCN3C[C@H](F)C4)nc3c(F)c(-c4ccc(F)c5sc(N)c(C#N)c45)c(C(F)(F)F)cc23)[C@H]1C [Compound 260]			> 1	≤ 0.1		
N#Cc1c(N)sc2c(F)ccc(-c3c(C(F)(F)F)cc4c(N5CC6CC5CO6)nc(OC[C@@]56CCCN5C[C@H](F)C6)nc4c3F)c12 (stereo partly shown) [Compound 147]			> 1			
CCN(c1nc(OC[C@@]23CCCN2C[C@H](F)C3)nc2c(F)c(-c3ccc(F)c4sc(N)c(C#N)c34)c(C(F)(F)F)cc12)[C@@H]1CCN(C(C)=O)C1 [Compound 268]	0.1 to 1	0.1 to 1	> 1	≤ 0.1		
CC(=O)N1CC[C@@H](N(C)c2nc(OC[C@@]34CCCN3C[C@H](F)C4)nc3c(F)c(-c4ccc(F)c5sc(N)c(C#N)c45)c(C(F)(F)F)cc23)[C@H]1C (single isomer, unassigned) [Compound 193]		≤ 0.1	> 1	≤ 0.1		
N#Cc1c(N)sc2c(F)ccc(-c3c(C(F)(F)F)cc4c(N5CCOCC5)nc(OC[C@@]56CCCN5C[C@H](F)C6)nc4c3F)c12 (single isomer, unassigned) [Compound 198]			> 1	≤ 0.1		
CCN(c1nc(OC[C@@]23CCCN2C[C@H](F)C3)nc2c(F)c(-c3ccc(F)c4sc(N)c(C#N)c34)c(Cl)cc12)[C@@H]1CCN(C(=O)C2CC2)[C@@H]1C [Compound 337]			> 1	≤ 0.1		
